Results: US4822773A (Merck & Co., Inc., priority 1987, dated 1989)
One block for each compound: values may come before it.

How the values were obtained:
in vivo = settings: rat
Procedure: Experiments were performed with rats wherein each animal received an aqueous microenema applied to the rectal cavity. The microenemas contained target drug entity (amount shown in table) in the presence or absence of 5 mg lauroylcholine chloride or palmitoylcholine iodide. Blood levels were monitored and the amount of drug absoreed calculated against intravenous administration and expressed as percent bioavailability.
The amount of drug absorbed is expressed as percent bioavailability versus intravenous administration
Blood was collected and sodium cefoxitin measured. Absorption of sodium cefoxitin is expressed as percent bioavailability versus intravenous administration.

[1] = Small intestinal (duodenal) absorption from aqueous solution in rats, percent bioavailability versus intravenous administration; type: in vivo; settings: vs intravenous
Procedure: Blood levels were monitored and the amount of polypeptide absorbed calculated against intravenous administration and expressed as percent bioavailability.
Experiments were performed as in Example 5. The solutions contained 10 mg/kg of cefoxitin and 20 mg/kg of absorption promoters. Blood levels of cefoxitin were monitored and the bioavailability of cefoxitin absorbed was calculated against intravenous administration.

- Percent Bioavailability (mean ± SD) with Control (in vivo): 2 ± 1.1%
- Sodium Cefoxitin Percent Bioavailability (mean ± SD), compound None (in vivo; pH 6): 2 ± 1.1%
- Percent Bioavailability (mean ± SD) of cefoxitin, adjuvant None ([1]; duodenal solution, 10 mg/kg cefoxitin alone): 2 ± 1.1%
SMILES: CO[C@@]1(NC(=O)Cc2cccs2)C(=O)N2C(C(=O)O)=C(COC(N)=O)CS[C@@H]21 [Sodium cefoxitin]

- bioavailability (in vivo; Percent Bioavailability (mean ± SD) with Control): 7 ± 3.5%
- bioavailability ([1]; rat, blood, aqueous solution applied to duodenal region, 0.1 mg polypeptide alone, read-out: Percent Bioavailability (mean ± SD), adjuvant None): 1%
SMILES: CC(C)[C@@H]1NC(=O)[C@H](CCCCN)NC(=O)[C@@H](Cc2c[nH]c3ccccc23)NC(=O)[C@H](Cc2ccc(O)cc2)NC(=O)[C@H](C)N(C)C(=O)[C@H](Cc2ccccc2)NC1=O [cyclo(N--Me--Ala--Try--DTrp--Lys--Val--Phe)acetate]

- Absorption of the drug by itself (in vivo): absorbed well by itself
- Percent Bioavailability (mean ± SD) with Control (in vivo): 75 ± 3.3%
SMILES: Cn1c(=O)c2[nH]cnc2n(C)c1=O [Theophylline]

- Percent Bioavailability (mean ± SD) with Control (in vivo): 0.5 ± 0.1%
SMILES: Nc1ccn([C@@H]2O[C@H](CO)[C@@H](O)[C@@H]2O)c(=O)n1 [Cytarabine]
